Data from patent US10702512B2, “Treatment of debilitating fatigue” (A. CARLSSON RESEARCH AB, priority 2015, dated 2020).

Legend:
water solubility = type: physicochemical; settings: hydrochloride, white powder
Description: The investigated substance is the S enantiomer with the chemical name (S)-3-[3-(methylsulfonyl) phenyl]-1-propylpiperidine hydrochloride, referred herein to as OSU6162. The substance is a white powder with a melting point of 177-182° C. and water solubility of >2000 mg/ml.

ME/CFS patients [1] = experiment: Clinical Global Impression of Change (CGI-C), phase II clinical study; type: in vivo, human; settings: for patients exhibiting improved CGI-C values: entire population
Description: As used herein “Clinical Global Impression of Change” (CGI-C) (also known as Clinical Global Impression—Improvement (CGI-I)) scale is a 7 point scale that requires the clinician to assess how much the patient's illness has improved or worsened relative to a baseline state at the beginning of the intervention. […] Circular coated tablets for oral use of 15 mg and matching placebos was used. The tablets were administered by research nurses at the study site. The tablets were circular coated tablets for oral use containing 15 mg OSU6162. Matching placebos were used. The start dose was 15 mg OSU6162 twice daily (before breakfast and lunch) during 1 week with dose increase up to 30 mg twice daily during the following week. Efficacy was measured according to ratings using the self-assessment questionnaire for mental fatigue and related symptoms (MFS) after neurological disorders and injuries (Johansson et al, supra). Another primary endpoint was the result of the rating by the Clinical Global Impression of Change (Guy, supra), which rating was made by the doctor in charge of the patient. CGI-C scores range from 1 (very much improved) through to 7 (very much worse). Clinical Global Impression of Change (CGI-C) was evaluated by the clinician for each patient.

ME/CFS patients [2] = experiment: mental fatigue self-assessment questionnaire (MFS) total score, phase II clinical study; type: in vivo, human
Description: As used herein, the term “MFS” refers to a the mental fatigue self-assessment questionnaire (Johansson B et al (2010) Brain Injury 2010; 24:2-12). […] Circular coated tablets for oral use of 15 mg and matching placebos was used. The tablets were administered by research nurses at the study site. The tablets were circular coated tablets for oral use containing 15 mg OSU6162. Matching placebos were used. The start dose was 15 mg OSU6162 twice daily (before breakfast and lunch) during 1 week with dose increase up to 30 mg twice daily during the following week. Efficacy was measured according to ratings using the self-assessment questionnaire for mental fatigue and related symptoms (MFS) after neurological disorders and injuries (Johansson et al, supra). Another primary endpoint was the result of the rating by the Clinical Global Impression of Change (Guy, supra), which rating was made by the doctor in charge of the patient. CGI-C scores range from 1 (very much improved) through to 7 (very much worse). To examine the effect of treatment and concomitant use of an antidepressant, antidepressant was included as a fixed factor in the analyses. […] Outcome targets FF, MFS and BDI were measured.

ME/CFS patients [3] = experiment: Barrow Neurological Institute Screen for Higher Cerebral Functions (BNIS); type: in vivo, human
Description: Next, patients were evaluated using a neuropsychological test. 61 patients were included in a neuropsychological examination. All subjects were tested once in connection with the randomization with the BNIS neuropsychological screening test. 20-30 minutes was required for this test. With the purpose of measuring the cognitive effects of the OSU6162 treatment six more tests were distributed at a first occasion before the initiation of treatment and at a second occasion after the treatment was completed. These tests required 20 minutes each. All tests were performed by a neuropsychologist. Barrow Neurological Institute Screen for Higher Cerebral Functions (BNIS) is a screening test constructed to quantitatively and qualitatively reflect the outcome of a range of higher cerebral functions. The three initial items are pre-screening items where arousal level, basic communication skills and level of cooperation are assessed (a maximum score of 9) to decide whether the status of the patients allows further testing. At least two points in each item are required. The BNIS contains the following domains: speech and language (maximum score 15), orientation (maximum score 3), attention/concentration (maximum score 3), visual and visual spatial problem solving (maximum score 8), learning and memory (maximum score 7), affect (maximum score 4) and awareness vs. performance (maximum score 1). The test provides a total score=50 of overall cognitive functioning and subscale scores. A score less than 47 indicates brain dysfunction.

ME/CFS patients [4] = experiment: Trail making test A (TMT A); type: in vivo, human
Description: Next, patients were evaluated using a neuropsychological test. 61 patients were included in a neuropsychological examination. All subjects were tested once in connection with the randomization with the BNIS neuropsychological screening test. 20-30 minutes was required for this test. With the purpose of measuring the cognitive effects of the OSU6162 treatment six more tests were distributed at a first occasion before the initiation of treatment and at a second occasion after the treatment was completed. These tests required 20 minutes each. All tests were performed by a neuropsychologist. Trail making test A (TMT A) requires the subject to draw a line as quickly as possible connecting a series of numbers. It is a time-based measure of attention, where time and quality are noted and requires motor effectiveness, visual scanning, speed and flexibility. The test has a high sensitivity for brain dysfunction.

[5] = OSU6162 group, tested once in connection with randomization

solubility (water solubility): > 2000 mg/mL
Compound: CCCN1CCC[C@@H](c2cccc(S(C)(=O)=O)c2)C1.Cl [OSU6162, (3S)-3-[3-(methylsulfonyl)-phenyl]-1-propylpiperidine hydrochloride]
patients exhibiting improved CGI-C values (ME/CFS patients [1]; after one week of treatment (15 mg twice daily, oral), 13 of 30): 43%
patients exhibiting improved CGI-C values (ME/CFS patients [1]; after two weeks of treatment (30 mg twice daily in week 2, oral), 17 of 30): 57%
difference in CGI-C between treatment groups (OSU6162 vs placebo) (ME/CFS patients [1]; entire patient population): no significant difference
CGI-C improvement vs placebo (ME/CFS patients [1]; subgroup receiving concomitant antidepressant treatment, after one week, Mann-Whitney U-test p=0.0524): clear tendency after one week for a greater improvement
MFS overall group difference between OSU6162 and placebo (ME/CFS patients [2]; 2-way ANOVA, F1,60=3.997, p=0.050): borderline significant trend
MFS interaction between treatment with OSU6162 and antidepressant over time (ME/CFS patients [2]; 3-way ANOVA week*treatm*antidepr, F3,180=2.755, p=0.044): statistically significant 3-way interactions
MFS overall difference between OSU6162 and placebo (ME/CFS patients [2]; 3-way analysis with antidepressant as fixed factor, F1,60=3.578, p=0.063): tendency to an overall difference
MFS difference between OSU6162 treated and placebo treated patients (ME/CFS patients [2]; patients not on antidepressant therapy, post hoc comparison): No difference
MFS change from week 0, difference OSU6162 vs placebo (95% CI) (ME/CFS patients [2]; patients on stable antidepressant therapy, after one week of treatment, F1,56=5.915, p=0.018, Bonferroni): −4.82 (−8.79 to −0.85)
BNIS total score, max (ME/CFS patients [3]; [5]): 50
BNIS total score, mean (ME/CFS patients [3]; [5]): 45.2
BNIS total score, min (ME/CFS patients [3]; [5]): 33
BNIS difference between OSU6162 and placebo groups (ME/CFS patients [3]; in vivo): No significant difference
TMT A, max (ME/CFS patients [4]; after treatment): 48 s
TMT A, mean (ME/CFS patients [4]; after treatment): 28.5
TMT A, median (ME/CFS patients [4]; after treatment): 29
TMT A, min (ME/CFS patients [4]; after treatment): 15
TMT A difference between OSU6162 and placebo groups (ME/CFS patients [4]; before and after treatment): No significant differences
TMT A, max (ME/CFS patients [4]; before treatment): 57 s
TMT A, mean (ME/CFS patients [4]; before treatment): 33.4
TMT A, median (ME/CFS patients [4]; before treatment): 32
TMT A, min (ME/CFS patients [4]; before treatment): 16
TMT A, Difference (ME/CFS patients [4]; before vs after treatment): 10
